Data on 12 compounds can be found in paper PMC5948155 (ACS infectious diseases, 2018).

In assay [1] the target is T1, cholera toxin subunit B (CTB) (Vibrio cholerae serotype O1, UniProt P01556). It counts as cell-based.
Assay [2] addresses T1, cholera toxin subunit B (CTB). Briefly: cell-based. It counts as cell-based.

“Also recorded” adds a separate entry of the source.

T1 sequence (P01556 22-124 limits assumed): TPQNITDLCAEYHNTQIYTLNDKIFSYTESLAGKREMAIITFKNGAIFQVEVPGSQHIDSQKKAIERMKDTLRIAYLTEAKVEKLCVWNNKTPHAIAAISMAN

With `C[C@H](O)[C@@H](O)[C@@H](O)[C@H](F)C=O` [2-deoxy-2-fluoro-L-fucose, 2-Deoxy-2-fluoro-L-fucose], the “Inhibition of CTB binding to T84 cells (in words)” value in assay [1] is given as “indistinguishable”. Besides, in assay [2], the “Inhibition of CTB binding to Colo205 cells (in words)” value was “indistinguishable”.

`CC(=O)N[C@H]1[C@H]([C@H](O)[C@H](O)CO)O[C@@](O[C@H]2[C@@H](O)[C@@H](CO)O[C@@H](O[C@H]3[C@H](O)[C@@H](NC(C)=O)C(O)O[C@@H]3CO)[C@@H]2O)(C(=O)O)C[C@@H]1O` (stereo partly drawn) [3′-SLN, 3′-Sialyl-N-acetyllactosamine]: in assay [2], the “Inhibition of CTB binding to Colo205 cells (in words)” value was “incapable of inhibiting”.

In the case of `C[C@H](O)C[C@@H](O)[C@H](O)C=O` [4-deoxy-fucose, 4-Deoxy-L-fucose], the “Inhibition of CTB binding to T84 cells (in words)” value in assay [1] is given as “complete loss in inhibitory potential”. In addition, in assay [2], the “Inhibition of CTB binding to Colo205 cells (in words)” value is “complete loss in inhibitory potential”.

For `CC(=O)N[C@H]1[C@@H](O[C@H]2[C@@H](O)[C@@H](CO)O[C@@H](O[C@H]3[C@H](O[C@@H]4O[C@@H](C)[C@@H](O)[C@@H](O)[C@@H]4O)[C@@H](NC(C)=O)C(O)O[C@@H]3CO)[C@@H]2O[C@@H]2O[C@@H](C)[C@@H](O)[C@@H](O)[C@@H]2O)O[C@H](CO)[C@H](O)[C@@H]1O` (stereo partly drawn) [ALeY], the “Inhibition of CTB binding to Colo205 cells (in words)” value in assay [2] is reported as “failed to produce a further increase in potency; also recorded: less effectively than LeY”.

On to `CC(=O)NC1C(O)OC(CO)C(OC2OC(CO)C(O)C(OC3OC(CO)C(O)C(O)C3O)C2OC2OC(C)C(O)C(O)C2O)C1OC1OC(C)C(O)C(O)C1O` (stereo not drawn) [BLeY], for which the “Inhibition of CTB binding to Colo205 cells (in words)” value in assay [2] is “failed to produce a further increase in potency; also recorded: comparable blocking activity as LeY”.

As for `CC(=O)NC1C(O)CC(OC2C(O)C(OC3C(CO)OC(O)C(O)C3O)OC(CO)C2OC2OC(CO)C(O)C(OC3OC(CO)C(O)C(O)C3O)C2NC(C)=O)(C(=O)O)OC1C(O)C(O)CO` (stereo not drawn) [GM1a(os), GM1a ganglioside sugar], the “Inhibition of CTB binding to T84 cells, titration of inhibitor (in words)” value in assay [1] is reported as “could not completely inhibit CTB binding”. In assay [2], the “CTB binding, % of the no sugar control” value is given as ~ 5% and the “Fold more potent than LeY in inhibiting CTB binding” value is recorded as “approximately 2000 fold”. The half-maximal inhibitory concentration (IC50) (commonly the midpoint of a concentration-inhibition curve) in assay [2] (read-out: IC50 against CTB binding) is 109 ± 38 nM.

As for `CC(=O)N[C@H]1C(O)O[C@H](CO)[C@@H](O[C@@H]2O[C@H](CO)[C@H](O)[C@H](O)[C@H]2O[C@@H]2O[C@@H](C)[C@@H](O)[C@@H](O)[C@@H]2O)[C@@H]1O` (stereo partly drawn) [H antigen, Blood group H antigen triaose type 2], in assay [2], the “Reduction of CTB binding compared to the no sugar control” value is given as “at least 75%”.

With `C[C@@H]1OC(O)[C@@H](O)C[C@@H]1O` (stereo partly drawn) [L-colitose], the “Inhibition of CTB binding to T84 cells (in words)” value in assay [1] is “significant loss in inhibitory potential”.

For `OC[C@H]1O[C@@H](O[C@H]2[C@H](O)[C@@H](O)[C@H](O)O[C@@H]2CO)[C@H](O)[C@@H](O)[C@H]1O` [lactose, d-Lactose monohydrate], the “Inhibition of CTB binding to T84 cells (in words)” value in assay [1] is “did not inhibit”. Also, the inhibition (as a rule, the change of the read-out against control, counted positive when it falls) at 100000 µM in assay [2] (COLO 205, read-out: Inhibition of CTB binding) is around 50%.

On to `CO[C@@H]1O[C@@H](C)[C@@H](O)[C@@H](O)[C@@H]1O` [methyl α-L-fucose, Methyl a-L-fucopyranoside], for which, in assay [1], the “Inhibition of CTB binding to T84 cells (in words)” value is “suppression of CTB binding was observed”. In assay [2], the “Inhibition of CTB binding to Colo205 cells (in words)” value was “inhibited CTB binding as efficiently as L-fucose”.

Take `COC1OC(C)C(O)C(O)C1O` [methyl β-L-fucose, Methyl b-L-fucopyranoside]: in assay [1], the “Inhibition of CTB binding to T84 cells (in words)” value is “inhibitory activity was not observed”. Moreover, in assay [2], the “Inhibition of CTB binding to Colo205 cells (in words)” value is recorded as “significantly less”.

Regarding Asialo-GM1-tetrasaccharide [GA1(os)], in assay [1], the “Inhibition of CTB binding to T84 cells, titration of inhibitor (in words)” value is recorded as “no inhibition”. For the same compound, the “Inhibition of CTB binding to Colo205 cells (in words)” value in assay [2] is “significantly attenuated”.
